From ChEMBL document CHEMBL3880442, “NHE3-binding compounds and methods for inhibiting phosphate transport” (2014)
Active and inactive are the calls of the source. No cut-off for these calls is given here.

Columns and labels:
[1] = tested on: Rattus norvegicus; experiment: Effect on phosphate level in urine in Sprague-Dawley rat at 10 mg/kg administered via oral gavage measured after 16 hrs by gravimetric analysis relative to vehicle-treated control; assay type: functional
[2] = tested on: Rattus norvegicus; experiment: Effect on sodium level in urine in Sprague-Dawley rat at 10 mg/kg administered via oral gavage measured after 16 hrs by gravimetric analysis relative to vehicle-treated control; assay type: functional
[3] = tested on: Rattus norvegicus; experiment: Inhibition of NHE3-mediated intestinal phosphate uptake in rat at 10 mg/kg, po administered with 33-labeled Pi; assay type: functional, organism-based
[4] = tested on: Rattus norvegicus; experiment: Inhibition of NHE3-mediated intestinal phosphate uptake in rat at 10 mg/kg, po administered with 33-labeled Pi in presence of calcium; assay type: functional, organism-based
[5] = tested on: Rattus norvegicus; experiment: Inhibition of NHE3-mediated intestinal phosphate uptake in rat at 10 mg/kg, po administered with 33-labeled Pi in presence of glucose and calcium; assay type: functional, organism-based
[6] = tested on: Rattus norvegicus; experiment: Reduction in urinary phosphorus mass in rat at 0.3 to 3 mg/kg administered with diet relative to vehicle-control; assay type: functional, organism-based
[7] = organism: Rattus norvegicus; experiment: Reduction in plasma creatinine level in Sprague-Dawley rat model of uremia-associated vascular calcification measured after 27 days in presence of calcitriol; assay type: functional
[8] = organism: Rattus norvegicus; experiment: Increase in plasma aldosterone level in Sprague-Dawley rat model of uremia-associated vascular calcification measured after 27 days in presence of calcitriol; assay type: functional
[9] = tested on: Rattus norvegicus; experiment: Reduction in urinary calcium mass in rat at 0.3 to 3 mg/kg administered with diet relative to vehicle-control; assay type: functional, organism-based
[10] = tested on: Rattus norvegicus; experiment: Effect on urinary excretion of phosphorus in dietary salt-induced Sprague-Dawley rat partial ablation model of chronic kidney disease at 0.3 to 3 mg/kg administered with chow diet measured after 7 days; assay type: functional, organism-based
[11] = tested on: Rattus norvegicus; experiment: Reduction in serum phosphorus level in adenine-induced uremic Sprague-Dawley rat model at 2 to 5 mg/kg administered with chow diet; assay type: functional, organism-based
[12] = organism: Rattus norvegicus; experiment: Effect on kidney hypertrophy in Sprague-Dawley rat model of uremia-associated vascular calcification assessed as reduction in kidney to body weight ratio measured after 27 days in presence of calcitriol; assay type: functional
[13] = tested on: Rattus norvegicus; experiment: Anti-remodeling activity in adenine-induced uremic Sprague-Dawley rat model assessed as decrease in ratio of stomach weight to body weight at 2 to 5 mg/kg administered with chow diet; assay type: functional, organism-based
[14] = tested on: Rattus norvegicus; experiment: Reduction in albuminuria in dietary salt-induced Sprague-Dawley rat partial ablation model of chronic kidney disease at 0.3 to 3 mg/kg administered with chow diet measured after 7 days; assay type: functional, organism-based
[15] = tested on: Rattus norvegicus; experiment: Reduction in aortic calcium content in adenine-induced uremic Sprague-Dawley rat model at 5 mg/kg administered with chow diet; assay type: functional, organism-based
[16] = organism: Rattus norvegicus; experiment: Reduction in stomach calcium content in Sprague-Dawley rat model of uremia-associated vascular calcification measured after 27 days in presence of calcitriol; assay type: functional
[17] = tested on: Rattus norvegicus; experiment: Antihypertensive activity in dietary salt-induced Sprague-Dawley rat partial ablation model of chronic kidney disease assessed as reduction in blood pressure at 0.3 to 3 mg/kg administered with chow diet measured after 7 days; assay type: functional, organism-based
[18] = organism: Rattus norvegicus; experiment: Reduction in creatinine clearance in Sprague-Dawley rat model of uremia-associated vascular calcification measured after 27 days in presence of calcitriol; assay type: functional
[19] = organism: Rattus norvegicus; experiment: Reduction in stomach phosphorus content in Sprague-Dawley rat model of uremia-associated vascular calcification measured after 27 days in presence of calcitriol; assay type: functional
[20] = organism: Rattus norvegicus; experiment: Reduction in aortic calcium content in Sprague-Dawley rat model of uremia-associated vascular calcification measured after 27 days in presence of calcitriol; assay type: functional
[21] = organism: Rattus norvegicus; experiment: Reduction in plasma phosphorus level in Sprague-Dawley rat model of uremia-associated vascular calcification measured after 27 days in presence of calcitriol; assay type: functional
[22] = organism: Rattus norvegicus; experiment: Increase in plasma albumin level in Sprague-Dawley rat model of uremia-associated vascular calcification measured after 27 days in presence of calcitriol; assay type: functional
[23] = tested on: Rattus norvegicus; experiment: Antihypertrophic activity in dietary salt-induced Sprague-Dawley rat partial ablation model of chronic kidney disease assessed as change in kidney morphology at 0.3 to 3 mg/kg administered with chow diet measured after 7 days; assay type: functional, organism-based
[24] = tested on: Rattus norvegicus; experiment: Antihypertrophic activity in dietary salt-induced Sprague-Dawley rat partial ablation model of chronic kidney disease assessed as change in heart morphology at 0.3 to 3 mg/kg administered with chow diet measured after 7 days; assay type: functional, organism-based
[25] = Reduction in fluid overload in dietary salt-induced Sprague-Dawley rat partial ablation model of chronic kidney disease at 0.3 to 3 mg/kg administered with chow diet measured after 7 days; assay type: functional, organism-based
[26] = tested on: Rattus norvegicus; experiment: Reduction in aortic phosphorus content in adenine-induced uremic Sprague-Dawley rat model at 5 mg/kg administered with chow diet; assay type: functional, organism-based
[27] = tested on: Rattus norvegicus; experiment: Anti-remodeling activity in adenine-induced uremic Sprague-Dawley rat model assessed as decrease in ratio of heart weight to body weight at 2 to 5 mg/kg administered with chow diet; assay type: functional, organism-based
[28] = tested on: Rattus norvegicus; experiment: Reduction in serum creatinine level in adenine-induced uremic Sprague-Dawley rat model at 2 to 5 mg/kg administered with chow diet; assay type: functional, organism-based
[29] = tested on: Rattus norvegicus; experiment: Reduction in stomach calcium content in adenine-induced uremic Sprague-Dawley rat model at 5 mg/kg administered with chow diet; assay type: functional, organism-based
[30] = tested on: Rattus norvegicus; experiment: Anti-remodeling activity in adenine-induced uremic Sprague-Dawley rat model assessed as decrease in ratio of aortic arch weight to body weight at 2 to 5 mg/kg administered with chow diet; assay type: functional, organism-based
[31] = organism: Rattus norvegicus; experiment: Reduction in aortic phosphorus content in Sprague-Dawley rat model of uremia-associated vascular calcification measured after 27 days in presence of calcitriol; assay type: functional
[32] = organism: Rattus norvegicus; experiment: Increase in plasma calcium level in Sprague-Dawley rat model of uremia-associated vascular calcification measured after 27 days in presence of calcitriol; assay type: functional
[33] = organism: Rattus norvegicus; experiment: Effect on heart hypertrophy in Sprague-Dawley rat model of uremia-associated vascular calcification assessed as reduction in heart to body weight ratio measured after 27 days in presence of calcitriol; assay type: functional
[34] = tested on: Rattus norvegicus; experiment: Reduction in stomach phosphorus content in adenine-induced uremic Sprague-Dawley rat model at 5 mg/kg administered with chow diet; assay type: functional, organism-based
[35] = tested on: Rattus norvegicus; experiment: Anti-remodeling activity in adenine-induced uremic Sprague-Dawley rat model assessed as decrease in ratio of kidney weight to body weight at 2 to 5 mg/kg administered with chow diet; assay type: functional, organism-based
[36] = organism: Rattus norvegicus; experiment: Reduction in plasma FGF23 level in Sprague-Dawley rat model of uremia-associated vascular calcification measured after 27 days in presence of calcitriol; assay type: functional
[37] = tested on: Rattus norvegicus; experiment: Effect on sodium level in urine in Sprague-Dawley rat at 1 mg/kg administered via oral gavage measured after 16 hrs by gravimetric analysis relative to vehicle-treated control; assay type: functional
[38] = tested on: Rattus norvegicus; experiment: Reduction in urinary sodium level in rat at 10 mg/kg, po administered with 33-labeled Pi; assay type: functional, organism-based
[39] = tested on: Rattus norvegicus; experiment: Effect on fecal form in rat at 10 mg/kg, po administered with 33-labeled Pi; assay type: functional, organism-based
[40] = tested on: Rattus norvegicus; experiment: Effect on phosphate level in urine in Sprague-Dawley rat at 3 mg/kg administered via oral gavage measured after 16 hrs by gravimetric analysis relative to vehicle-treated control; assay type: functional
[41] = tested on: Rattus norvegicus; experiment: Effect on sodium level in urine in Sprague-Dawley rat at 3 mg/kg administered via oral gavage measured after 16 hrs by gravimetric analysis relative to vehicle-treated control; assay type: functional

CN(C)[C@H]1Cc2c(Cl)cc(Cl)cc2[C@@H]1Oc1ccc(S(=O)(=O)N(C)CCOCCOCCNC(=O)NCCCCNC(=O)NCCOCCOCCN(C)S(=O)(=O)c2ccc(O[C@H]3c4cc(Cl)cc(Cl)c4C[C@@H]3N(C)C)cc2)cc1
Activity [1]: 49% | Activity [2]: 49%

CN1Cc2c(Cl)cc(Cl)cc2[C@@H](c2cccc(S(=O)(=O)NCCOCCOCCNC(=O)NCCCCNC(=O)NCCOCCOCCNS(=O)(=O)c3cccc([C@H]4CN(C)Cc5c(Cl)cc(Cl)cc54)c3)c2)C1
inhibition [3]: Active | inhibition [4]: Active | inhibition [5]: Active

O=C(O)CN(CCN(CC(=O)O)CC(=O)NCCOCCOCCNS(=O)(=O)c1ccc(O[C@H]2c3ccccc3C[C@@H]2N2CCCCC2)cc1)CC(=O)NCCOCCOCCNS(=O)(=O)c1ccc(O[C@H]2c3ccccc3C[C@@H]2N2CCCCC2)cc1
Activity [1]: 55 - 85% | Activity [2]: 68 - 93%

CN1Cc2c(Cl)cc(Cl)cc2[C@H](c2cccc(S(=O)(=O)NCCOCCOCCNC(=O)NCCN(CCNC(=O)NCCOCCOCCNS(=O)(=O)c3cccc([C@@H]4CN(C)Cc5c(Cl)cc(Cl)cc54)c3)C(=O)CCOCCOCCOCCOCCOCCC(=O)N(CCNC(=O)NCCOCCOCCNS(=O)(=O)c3cccc([C@@H]4CN(C)Cc5c(Cl)cc(Cl)cc54)c3)CCNC(=O)NCCOCCOCCNS(=O)(=O)c3cccc([C@@H]4CN(C)Cc5c(Cl)cc(Cl)cc54)c3)c2)C1
Activity [1]: 69% | Activity [2]: 47%

CN1Cc2c(Cl)cc(Cl)cc2[C@@H](c2cccc(S(=O)(=O)NCCOCCOCCNC(=O)NCCCCNC(=O)NCCOCCOCCNS(=O)(=O)c3cccc([C@@H]4CN(C)Cc5c(Cl)cc(Cl)cc54)c3)c2)C1.Cl.Cl
Activity [2]: 90%

CN1Cc2c(Cl)cc(Cl)cc2[C@H](c2cccc(S(=O)(=O)NCCOCCOCCNC(=O)NCCCCNC(=O)NCCOCCOCCNS(=O)(=O)c3cccc([C@@H]4CN(C)Cc5c(Cl)cc(Cl)cc54)c3)c2)C1
Activity [6]: Active | Activity [7]: Active | Activity [8]: Active | Activity [9]: Active | Activity [10]: Active | Activity [11]: Active | Activity [12]: Active | Activity [13]: Active | Activity [14]: Active | Activity [15]: Active | Activity [16]: Active | Activity [17]: Active | Activity [18]: Active | Activity [19]: Active | Activity [20]: Active | Activity [21]: Active | Activity [22]: Active | Activity [23]: Active | Activity [24]: Active | Activity [25]: Active | Activity [26]: Active | Activity [27]: Active | Activity [28]: Active | Activity [29]: Active | Activity [30]: Active | Activity [31]: Active | Activity [32]: Active | Activity [33]: Active | Activity [34]: Active | Activity [35]: Active | Activity [36]: Active

CN1Cc2c(Cl)cc(Cl)cc2[C@H](c2cccc(S(=O)(=O)NCCOCCOCCNC(=O)Nc3ccc(NC(=O)NCCOCCOCCNS(=O)(=O)c4cccc([C@@H]5CN(C)Cc6c(Cl)cc(Cl)cc65)c4)cc3)c2)C1.Cl.Cl
Activity [37]: 22% | inhibition [3]: Active | inhibition [4]: Active | Activity [38]: Active | inhibition [5]: Active | Activity [39]: Active

O=C(NCCCCNC(=O)NCCOCCOCCOCCNS(=O)(=O)c1ccc(O[C@H]2c3ccccc3C[C@@H]2N2CCCCC2)cc1)NCCOCCOCCOCCNS(=O)(=O)c1ccc(O[C@H]2c3ccccc3C[C@@H]2N2CCCCC2)cc1
Activity [1]: 43 - 52% | Activity [2]: 33 - 79%

CN1Cc2c(Cl)cc(Cl)cc2[C@H](c2cccc(S(=O)(=O)NCCOCCOCCNC(=O)CCC(CCC(=O)NCCOCCOCCNS(=O)(=O)c3cccc([C@@H]4CN(C)Cc5c(Cl)cc(Cl)cc54)c3)(CCC(=O)NCCOCCOCCNS(=O)(=O)c3cccc([C@@H]4CN(C)Cc5c(Cl)cc(Cl)cc54)c3)NC(=O)N[C@@H](CC(=O)O)C(=O)O)c2)C1
Activity [40]: 51% | Activity [41]: 41%
